Marks after values point to notes of the source that are not given here. Square brackets hold non-standard residues; d marks the D form. Peptide text beside a SMILES is read from it.
How the values were obtained:
[1] = Solubility noted in the compound description; assay type: physicochemical; conditions: water and DMSO
Male Swiss Webster mice = test: Mouse acetic acid-induced writhing test (i.c.v. peptides); assay type: in vivo; conditions: for Potency ratio (95% CL): as compared with HN; for AD50 (nmol/mouse) (95% CL): method #2, percent analgesia; for AD50 (nmol/mouse) (95% CL) / ED50 (nmol/mouse) (95% CL): acetic acid i.p. 5 min after peptide, 95% CL in brackets; for ED50 (nmol/mouse) (95% CL): method #1, percent of mice showing analgesia
Method: Mice (male 20-25 g, Swiss Webster) were obtained from Charles River (Canadian Breeding Farm, St. Constant, Quebec). They were housed five per cage in a room with controlled temperature (22±2° C.), humidity and artificial light (06.30-19 h). […] The experiments were authorized by the animal care committee of the University of Ottawa in accordance […] guidelines of the Canadian Council on Animal Care. The i.c.v. administrations of the peptides were performed as described by Shukla et al. (Shukla et al., Brain Res. 591, 176, 1992 the disclosure of which is incorporated by reference). Peptides were dissolved in double-distilled sterile water (vehicle) and 10 μl of the peptide solution or vehicle was delivered gradually within approximately 3 sec. […] The administration site was confirmed by injecting Indian ink in preliminary experiments. Mouse Writhing Test: Antinociceptive activity of the peptides was evaluated using the acetic acid-induced writhing test according to a modification (Shukla et al. Brain Research 591, 176, 1992 the disclosure of which is incorporated by reference) of the method of Hayashi and Takemori (Eur.J. Pharmacol. 16 63, 1971 the disclosure of which is incorporated by reference). […] An abdominal stretch is characterized by the contraction of the abdominal muscles, the arching of the back vent-ally such that the abdomen touches the bedding surface and the extension of one or both hind limbs. Mice were used once and then killed immediately. Groups of 10 mice were used for each dose. […] Biochem. Psycholpharmacol. 8:191, 1974, the disclosure of which is incorporated by reference). […] Pharmacol. Exp. Ther. 96 99, 1949, the disclosure of which is incorporated by reference) using procedure 47 of the computer program of Tallarida and Murray (in “Manual of pharmacological calculations with computer programs”, 2nd ed., Springer, New York, 1987, the disclosure of which is incorporated by reference). In the second case (method #2), the percentage of analgesia is calculated for each dose by the formula: [(mean number of writhes in control group-mean number of writhes for the test group)/(mean number of writhes in control group)×100]. […] Pharmacol. Exp. Ther 96, 99, 1949 the disclosure in which is incorporated by reference) using procedure 47 of the computer program of Tallarida and Murray (in “Manual of pharmacological calculations with computer programs”. 2nd ed., Springer, New York, 1987, the disclosure in which is incorporated by reference).

Solubility [1] | Molecule | Potency ratio (95% CL) (Male Swiss Webster mice; method #2 (AD50)) | AD50 (nmol/mouse) (95% CL) (Male Swiss Webster mice) | Potency ratio (95% CL) (Male Swiss Webster mice; method #1 (ED50)) | ED50 (nmol/mouse) (95% CL) (Male Swiss Webster mice)
Soluble in water and DMSO | NC(=O)CC[C@@H]1NC(=O)CNC(=O)[C@H](CCCN=C(N)N)NC(=O)[C@H](Cc2ccc(O)cc2)NC1=O [Peptide 7, cyclic(-Gly-Gln-Tyr-Arg-)] (cyclo(GQYR)) | – | – | – | –
Soluble in water and DMSO | C[C@@H]1NC(=O)[C@H](CCC(N)=O)NC(=O)[C@H](CCCNC(=N)N)NC(=O)[C@H](CCCNC(=N)N)NC1=O [Peptide 6, cyclic(-Arg-Gln-Ala-Arg-)] | 0.94 (0.22-3.98) | 25.1 (11.3-55.6) nmol/mouse | – | –
soluble in water and DMSO | N=C(N)NCCC[C@H](NC(=O)CNC(=O)[C@H](CCC(N)=O)NC(=O)[C@@H](N)CCCNC(=N)N)C(=O)O [Peptide 1, H-Arg-Gln-Gly-Arg-OH] (H-RQGR-OH) | 1.84 (0.3-12.5) | 12.8 (3.6-46.1) nmol/mouse | – | –
Soluble in water and DMSO | N=C(N)NCCC[C@H](NC(=O)CNC(=O)[C@H](CCC(N)=O)NC(=O)CN)C(=O)O [Peptide 2, H-Gly-Gln-Gly-Arg-OH] (H-GQGR-OH) | 0.91 (0.11-7.63) | 25.9 (5.9-113) nmol/mouse | 2.0 (0.6-6.3) | 11.3 (4.2-30.4) nmol/mouse
– | N=C(N)NCCC[C@H]1NC(=O)[C@H](Cc2ccc(O)cc2)NC(=O)[C@@H](CCC(N)=O)NC(=O)CNC1=O [Peptide 9, cyclic(-Gly-D-Gln-Tyr-D-Arg-)] (cyclo(G[dQ]Y[dR])) | 10.6 (3.6-31.0)* | 2.23 (1.45-3.43) nmol/mouse | – | –
– | N=C(N)NCCC[C@@H]1NC(=O)[C@H](Cc2ccc(O)cc2)NC(=O)[C@H](CCC(N)=O)NC(=O)CNC1=O [Peptide 7, cyclic(-Gly-Gln-Tyr-Arg-)] (cyclo(GQYR)) | 5.6 (1.25-25)* | 4.21 (1.80-9.87) nmol/mouse | – | –
Soluble in water and DMSO | C[C@H](NC(=O)[C@H](CCC(N)=O)NC(=O)[C@@H](N)CCCNC(=N)N)C(=O)N[C@@H](CCCNC(=N)N)C(=O)O [Peptide 4, H-Arg-Gln-Ala-Arg-OH] | 1.86 (0.27-12.8) | 12.7 (3.5-46.1) nmol/mouse | 4.5 (1.4-14.3) | 4.9 (1.8-13.2) nmol/mouse
– | H-RQGRTLYGF-OH [Peptide 13] | 2.43 (0.2-18) | 9.7 (2.5-37.4) nmol/mouse | 3.0 (0.8-11.2) | 7.5 (2.3 -24.4) nmol/mouse
Soluble in water and DMSO | C[C@@H]1NC(=O)[C@H](CCC(N)=O)NC(=O)CNC(=O)[C@H](CCCNC(=N)N)NC1=O [Peptide 5, cyclic(-Gly-Gln-Ala-Arg-)] (cyclo(ARGQ)) | 1.77 (0.11-28.1) | 13.3 (1.6-114) nmol/mouse | 7.7 (1.3-46.6) | 2.9 (0.8 -9.8) nmol/mouse
– | N=C(N)NCCC[C@H]1NC(=O)[C@H](Cc2ccc(O)cc2)NC(=O)[C@H](CCC(N)=O)NC(=O)CNC1=O [Peptide 8, cyclic(-Gly-Gln-Tyr-D-Arg-)] (cyclo(GQY[dR])) | 5.35 (1.04-26.4)* | 4.41 (1.7-11.9) nmol/mouse | – | –
– | C[C@H](NC(=O)[C@H](CCC(N)=O)NC(=O)CN)C(=O)N[C@@H](CCCNC(=N)N)C(=O)O [Peptide 3, H-Gly-Gln-Ala-Arg-OH] (H-GQAR-OH) | 6.92 (0.84-56.2)* | 3.41 (0.8-14.6) nmol/mouse | 5.7 (2.0-15.9) | 3.9 (1.7-9.1) nmol/mouse
Soluble in water and DMSO | C[C@@H]1NC(=O)[C@H](CCC(N)=O)NC(=O)[C@H](CCCNC(=N)N)NC(=O)[C@H](CCCNC(=N)N)NC(=O)[C@H](C)NC(=O)[C@H](CCC(N)=O)NC(=O)[C@H](CCCNC(=N)N)NC(=O)[C@H](CCCNC(=N)N)NC1=O [Peptide 6B] (cyclo(ARRQARRQ)) | – | – | – | –
Soluble in water and DMSO | C[C@@H]1NC(=O)[C@H](CCC(N)=O)NC(=O)CNC(=O)[C@H](CCCNC(=N)N)NC(=O)[C@H](C)NC(=O)[C@H](CCC(N)=O)NC(=O)CNC(=O)[C@H](CCCNC(=N)N)NC1=O [Peptide 5B] (cyclo(ARGQARGQ)) | 0.93 (0.22-3.9) | 25.3 (11.6-55.1) nmol/mouse | – | –
Soluble in water and DMSO | NC(=O)CC[C@H]1NC(=O)CNC(=O)[C@@H](CCCN=C(N)N)NC(=O)[C@H](Cc2ccc(O)cc2)NC1=O [Peptide 9, cyclic(-Gly-D-Gln-Tyr-D-Arg-)] (cyclo(G[dQ]Y[dR])) | – | – | – | –
Soluble in water and DMSO | C[C@H](NC(=O)[C@H](CCC(N)=O)NC(=O)CN)C(=O)N[C@@H](CCCN=C(N)N)C(=O)O [Peptide 3, H-Gly-Gln-Ala-Arg-OH] (H-GQAR-OH) | – | – | – | –
